Structures can show the parent of a compound that is named as a salt.
Molecular target: SARS-CoV-2 Mac1 (Severe acute respiratory syndrome coronavirus 2, UniProt P0DTD1)
Experiment: biochemical
Settings: for %inhibition: 100 µM, inhibitor; for inhibition at 100 µM: read-out: %inhibition

Row | SMILES | %inhibition [%] | inhibition at 100 µM [%]
1 | C[C@H]1COc2c(N3CCN(C)CC3)c(F)cc3c(=O)c(C(=O)O)cn1c23 [Levofloxacin hydrate] | 0 | 
2 | C[C@H]1COc2c(N3CCN(C)CC3)c(F)cc3c(=O)c(C(=O)O)cn1c23 [Levofloxacin] | 22.21 | 
3 | C#C[C@]1(O)CC[C@H]2[C@@H]3CCC4=CC(=O)CC[C@@H]4[C@H]3CC[C@@]21CC [Levonorgestrel] |  | 53.4
4 | C[C@@H]1CC(=O)NN=C1c1ccc(NN=C(C#N)C#N)cc1 [Levosimendan] |  | 0
5 | CCN1CCC[C@H]1CNC(=O)c1cc(S(N)(=O)=O)ccc1OC [Levosulpiride] |  | 0
6 | N[C@@H](Cc1cc(I)c(Oc2cc(I)c(O)c(I)c2)c(I)c1)C(=O)O [Levothyroxine sodium] | 4.124 | 
7 | CCN(CC)CC(=O)Nc1c(C)cccc1C [Lidocaine hydrochloride] | 4.808 | 
8 | CCN(CC)CC(=O)Nc1c(C)cccc1C [Lidocaine] | 1.6 | 
9 | CS(=O)(=O)c1cccc(C[C@H](NC(=O)c2c(Cl)cc3c(c2Cl)CCN(C(=O)c2ccc4ccoc4c2)C3)C(=O)O)c1 [Lifitegrast] |  | 0
10 | CC#CCn1c(N2CCC[C@@H](N)C2)nc2c1c(=O)n(Cc1nc(C)c3ccccc3n1)c(=O)n2C [Linagliptin] |  | 23.9
11 | CCC[C@@H]1C[C@@H](C(=O)N[C@@H]([C@H]2O[C@H](SC)[C@H](O)[C@@H](O)[C@H]2O)[C@@H](C)O)N(C)C1 [Lincomycin HCl] | 0 | 
12 | CCC[C@@H]1C[C@@H](C(=O)N[C@@H]([C@H]2O[C@H](SC)[C@H](O)[C@@H](O)[C@H]2O)[C@@H](C)O)N(C)C1 [Lincomycin Hydrochloride Monohydrate] | 16.9 | 
13 | CC(=O)NC[C@H]1CN(c2ccc(N3CCOCC3)c(F)c2)C(=O)O1 [Linezolid] |  | 0
14 | Cc1ccc(F)c(NC(=O)Nc2ccc(-c3cccc4[nH]nc(N)c34)cc2)c1 [Linifanib (ABT-869)] |  | 52.3
15 | C[C@]1(O)C[C@@H](c2nc(-c3ccc4ccc(-c5ccccc5)nc4c3)c3c(N)nccn32)C1 [Linsitinib (OSI-906)] |  | 9.54
16 | NCCCC[C@H](N[C@@H](CCc1ccccc1)C(=O)O)C(=O)N1CCC[C@H]1C(=O)O [Lisinopril] |  | 3.22
17 | C[C@H](CCC(=O)O)[C@H]1CC[C@H]2[C@@H]3CC[C@@H]4C[C@H](O)CC[C@]4(C)[C@H]3CC[C@]12C [Lithocholic acid] |  | 0
18 | CCn1cc(C(=O)O)c(=O)c2cc(F)c(N3CCNC(C)C3)c(F)c21 (centres unmarked) [Lomefloxacin] |  | 0
19 | COc1ccc(CN2CCN(C(c3ccc(F)cc3)c3ccc(F)cc3)CC2)c(OC)c1OC [Lomerizine 2HCl] |  | 12.8
20 | CC(C)(C)C#Cc1cc(N(C(=O)[C@H]2CC[C@H](C)CC2)[C@H]2CC[C@H](O)CC2)c(C(=O)O)s1 [Lomibuvir (VX-222, VCH-222)] |  | 2.87
21 | O=C(NC1CCN(CCCCC2(C(=O)NCC(F)(F)F)c3ccccc3-c3ccccc32)CC1)c1ccccc1-c1ccc(C(F)(F)F)cc1 [Lomitapide Mesylate] | 34.98 | 
22 | O=C(NC1CCN(CCCCC2(C(=O)NCC(F)(F)F)c3ccccc3-c3ccccc32)CC1)c1ccccc1-c1ccc(C(F)(F)F)cc1 [Lomitapide] |  | 17.8
23 | NC(=O)N1CCC(CC(=O)N2CCC([C@H]3c4ncc(Br)cc4CCc4cc(Cl)cc(Br)c43)CC2)CC1 [Lonafarnib] |  | 29.6
24 | O=C(O)c1nn(Cc2ccc(Cl)cc2Cl)c2ccccc12 [Lonidamine] |  | 7.38
25 | Cc1cccc(C)c1OCC(=O)N[C@@H](Cc1ccccc1)[C@@H](O)C[C@H](Cc1ccccc1)NC(=O)[C@H](C(C)C)N1CCCNC1=O [Lopinavir] |  | 0
26 | CN1C(C(=O)Nc2ccccn2)=C(O)c2sc(Cl)cc2S1(=O)=O [Lornoxicam] |  | 18.3
27 | CCCCc1nc(Cl)c(CO)n1Cc1ccc(-c2ccccc2-c2nnn[nH]2)cc1 [Losartan Potassium (DuP 753)] | 0 | 

Row | SMILES | %inhibition [%] | inhibition at 100 µM [%]
28 | CCCCc1nc(Cl)c(CO)n1Cc1ccc(-c2ccccc2-c2nnn[nH]2)cc1 [Losartan] | 18.38 | 
29 | Cc1c(F)cc(C(=O)NC2CC2)cc1-c1ccc(C(=O)NCC(C)(C)C)cn1 [Losmapimod (GW856553X)] |  | 0
30 | CCOC(=O)O[C@]1(C(=O)OCCl)CC[C@H]2[C@@H]3CCC4=CC(=O)C=C[C@]4(C)[C@H]3[C@@H](O)C[C@@]21C [Loteprednol etabonate] |  | 0
31 | CC[C@H](C)C(=O)O[C@H]1C[C@@H](C)C=C2C=C[C@H](C)[C@H](CC[C@@H]3C[C@@H](O)CC(=O)O3)[C@H]21 [Lovastatin] |  | 0
32 | CN1CCN(C2=Nc3ccccc3Oc3ccc(Cl)cc32)CC1 [Loxapine Succinate] |  | 30.4
33 | CC(C(=O)O)c1ccc(CC2CCCC2=O)cc1 (centres unmarked) [Loxoprofen Sodium] | 0 | 
34 | CC(C(=O)O)c1ccc(CC2CCCC2=O)cc1 (centres unmarked) [Loxoprofen] | 5.364 | 
35 | CCCCC(F)(F)[C@@]1(O)CC[C@H]2[C@@H](CC(=O)[C@@H]2CCCCCCC(=O)O)O1 [Lubiprostone] |  | 13.8
36 | N#C/C(=C1/SC[C@@H](c2ccc(Cl)cc2Cl)S1)n1ccnc1 [Luliconazole] |  | 24.1
37 | CCCCN(CCCC)CC(O)c1cc(Cl)cc2c1-c1ccc(Cl)cc1/C2=C/c1ccc(Cl)cc1 (centres unmarked) [Lumefantrine] |  | 0
38 | CCCNS(=O)(=O)Nc1ncnc(OCCOc2ncc(Br)cn2)c1-c1ccc(Br)cc1 [Macitentan] |  | 10
39 | NCc1ccc(S(N)(=O)=O)cc1 [Mafenide Acetate] | 0 | 
40 | NCc1ccc(S(N)(=O)=O)cc1 [Mafenide hydrochloride] | 8.456 | 
41 | CC(C)OC(=O)C(C(=O)OC(C)C)=C1SC=CS1 [Malotilate] |  | 0.00863
42 | Cc1occc(=O)c1O [Maltol] |  | 15.5
43 | COC(=O)C1=C(C)NC(C)=C(C(=O)OCCN2CCN(C(c3ccccc3)c3ccccc3)CC2)C1c1cccc([N+](=O)[O-])c1 (centres unmarked) [Manidipine 2HCl] |  | 0
44 | Cc1nnc(C(C)C)n1[C@@H]1C[C@H]2CC[C@@H](C1)N2CC[C@H](NC(=O)C1CCC(F)(F)CC1)c1ccccc1 [Maraviroc] |  | 24.2
45 | CN1CCN(c2c(F)cc3c(=O)c(C(=O)O)cn4c3c2OCN4C)CC1 [Marbofloxacin] |  | 18.3
46 | CNC(=O)[C@@H](NC(=O)[C@H](CC(C)C)[C@H](O)C(=O)NO)C(C)(C)C [Marimastat (BB-2516)] |  | 3.16
47 | Cc1ccc(NC(=O)c2ccc(CN3CCN(C)CC3)cc2)cc1Nc1nc(-c2cccnc2)cs1 [Masitinib (AB1010)] |  | 7.66
48 | COC(=O)Nc1nc2cc(C(=O)c3ccccc3)ccc2[nH]1 [Mebendazole] |  | 0
49 | CCN(CCCCOC(=O)c1ccc(OC)c(OC)c1)C(C)Cc1ccc(OC)cc1 (centres unmarked) [Mebeverine Hydrochloride] |  | 5.64
50 | CCOC(=O)c1c(C)n(C)c2ccc(O)cc12 [Mecarbinate] |  | 0
51 | Cc1cccc(CN2CCN(C(c3ccccc3)c3ccc(Cl)cc3)CC2)c1 (centres unmarked) [Meclizine 2HCl] |  | 9.09
52 | Cc1ccc(Cl)c(Nc2ccccc2C(=O)O)c1Cl [Meclofenamate Sodium] |  | 5.23
53 | CN(C)CCOC(=O)COc1ccc(Cl)cc1 [Meclofenoxate (Centrophenoxine) HCl] |  | 16.9

Reference: article doi:[…]/2021.10.07.463234v2 (biorxiv, 2021)
